Data published in patent US20180370912A1, “COMPOUNDS AND METHODS FOR TREATING DISEASES MEDIATED BY PROTEIN DISULFIDE ISOMERASE” (Beth Israel Deaconess Medical Center, Inc., priority 2017, published 2018).

Assays:
[1] = test system: platelet accumulation at sites of laser-induced injury; test: Thrombus formation in cremaster arterioles after laser-induced injury, intravital microscopy; type: in vivo; conditions: mice
Description: Intravital video microscopy of the cremaster muscle microcirculation was performed as described previously in Falati, S., Gross, P., Merrill-Skoloff, G., Furie, B. C. & Furie, Nat Med 8, 1175-81. (2002); and Jasuj a, R. et al., J Clin Invest 122, 2104-2113 (2012). Digital images were captured with an Orca Flash 4.0v2 sCMOS camera (Hamamatsu Photonics K.K., Shizuoka Pref., Japan). Representative images are presented, but the median curves include the full data. The kinetics of platelet thrombus formation were analyzed by determining median fluorescence values over time in ˜30-40 thrombi in three mice.
Two hours prior to surgery, 100 mg/kg of the suicide P450 inhibitor 1-aminobenzotriazole (ABT) was administered intraperioneally to each mouse. The cremaster muscle was then surgically exposed. Prior to arteriolar wall injury, DyLight-labeled antibodies were infused intravenously together with drug or vehicle control. Injury to a cremaster arteriolar vessel (30-50-μm diameter) was induced with a MicroPoint laser system Andor Andor Technology, Ltd., Belfast Ireland) focused through the microscope objective, parfocal with the focal plane and tuned to 440 nm through a dye cell containing 5 mM coumarin in methanol. Data were captured digitally from two fluorescence channels, 488/520 nm and 647/670 nm, as well as a brightfield channel Data acquisition was initiated both prior to and following an ablation laser pulse for each injury. The microscope system was controlled and images were collected and analyzed using SlideBook 6.0 (Intelligent Imaging Innovations, Denver, Colo.).
Prior to induction of the thrombus but after injection of the fluorescently labeled antibody, approximately 30 time points were recorded. Subsequently, a thrombus is initiated and recorded for approximately 170 seconds. […] The mean of maximal intensity values in the upstream region for each frame is calculated and used as the threshold to define those pixels containing signal. […] Using this information, the actual integrated intensity for each frame is calculated according to the following formula: […]

[2] = biological target: T1, abb′x fragment of PDI (Homo sapiens, UniProt P07237); test: Proteolysis assay with proteinase K
T1 construct: 1.25 μg of the abb′x fragment; His; made in house; host or cells: Escherichia coli Origami B (DE3), pET-15b
T1 sequence (P07237 18-368 limits assumed): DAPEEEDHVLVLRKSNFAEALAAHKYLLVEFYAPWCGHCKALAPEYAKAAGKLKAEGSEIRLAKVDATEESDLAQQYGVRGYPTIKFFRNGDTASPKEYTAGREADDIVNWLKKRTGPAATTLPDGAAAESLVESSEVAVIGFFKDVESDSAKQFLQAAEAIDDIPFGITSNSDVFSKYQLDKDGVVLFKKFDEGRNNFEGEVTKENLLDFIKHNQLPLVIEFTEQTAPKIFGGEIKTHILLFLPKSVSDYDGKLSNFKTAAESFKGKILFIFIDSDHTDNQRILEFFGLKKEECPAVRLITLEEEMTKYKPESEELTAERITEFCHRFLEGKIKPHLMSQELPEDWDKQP
Description: Proteinase K (2 μg/mL) was incubated with 1.25 μg of the abb′x fragment in 50 mM Tris-HCl containing 5 mM CaCl2 and 10 mM DTT. Reactions were aborted with the addition of 0.5 mM phenylmethanesulfonyl fluoride (PMSF). Subsequently, samples were subjected to Laemmli Sample buffer with 5% β-mercaptoethanol and heated at 95° C. for 10 minutes. Each sample was loaded on a 12% SDS-PAGE gel, followed by silver staining using the Pierce Silver Stain Kit (Thermo Scientific).

For `CCOC(=O)c1c(CNCCN(CC)CC)n(-c2ccccc2)c2cc(Br)c(O)cc12` [bepristat 2a], the tolerability in vivo ([1]; 15 mg/kg infusion) was “tolerated in vivo”, the “inhibition of platelet accumulation at sites of laser-induced injury” value ([1]; infusion 15 mg/kg body weight, p=0.02, FIG. 3c) was 14.9 % of controls and the “thrombus formation in vivo” value ([1]; laser injury of cremaster arterioles) was “potently inhibits thrombus formation”. For the same molecule, the “proteinase K activity (cleavage of ERp5)” value ([2]; control, not shown) was “did not interfere with proteinase K activity” and the “cleavage of abb′x by proteinase K” value ([2]; presence versus absence of compound, FIG. 5b) was “occurred more rapidly”.
